Reference: US12378256B2, “Heterocyclic compound” (Takeda Pharmaceutical Company Limited, priority 2017, dated 2025)

Assays:
[1] = Rat PK test (cassette dosing); type: in vivo; conditions: male SD rats, plasma; for Tmax: oral 1 mg/kg and iv 0.1 mg/kg given, route not stated for Tmax, read-out: Tmax (time to reach maximum plasma concentration); for clearance / MRT: intravenous 0.1 mg/kg; for clearance: read-out: CL total (total clearance) (converted); for MRT: read-out: MRT iv (mean residence time)
Experimental: As the rat, 8-week-old male SD rats (Japan SLC, Inc.) were used. They were fed on a solid commercially available diet (CE-2, CLEA Japan, Inc.) and allowed to freely ingest tap water as the drinking water. An intravenous administration solution for the rats was prepared by weighing a test compound, dissolving same in dimethylacetamide (DMA) (Wako Pure Chemical Industries, Ltd.), adding the same volume of 1,3-butanediol (Wako Pure Chemical Industries, Ltd.) and mixing by stirring to give a DMA:1,3-butanediol (1:1, v/v) solution. An oral administration solution was prepared by weighing a test compound, pulverizing same in an agate mortar, and gradually adding 0.5 w/v % aqueous methylcellulose solution to give a suspension. For intravenous administration, the solution was administered into femoral vein of the rats at 0.1 mg/0.5 mL/kg (salt converted to free form). For oral administration, the suspension was administered to the rats at 1 mg/5 mL/kg (salt converted to free form). The cassette dosing method was used for the both administration routes, and the test compound was administered in the following manner. • Compound of Example 20 (intravenous: 8 compounds cassette administration, oral: 5 compounds cassette administration) • Compound of Example 22 (intravenous: 5 compounds cassette administration, oral: 5 compounds cassette administration) • Compound of Example 31 (intravenous: 10 compounds cassette administration, oral: 5 compounds cassette administration) • Compound of Example 36 (intravenous: 10 compounds cassette administration, oral: 5 compounds cassette administration) • Compound of Example 44 (intravenous: 10 compounds cassette administration, oral: 5 compounds cassette administration) • Compound of Example 55 (intravenous: 6 compounds cassette administration, oral: 4 compounds cassette administration) • Compound of Example 74 (intravenous: 10 compounds cassette administration, oral: 5 compounds cassette administration) • Compound of Example 76 (intravenous: 9 compounds cassette administration, oral: 4 compounds cassette administration) • Compound of Example 77 (intravenous: 10 compounds cassette administration, oral: 5 compounds cassette administration) • Compound of Example 102 (intravenous: 10 compounds cassette administration, oral: 5 compounds cassette administration) • Compound of Example 109 (intravenous: 7 compounds cassette administration, oral: 4 compounds cassette administration)
In the case of intravenous administration, blood samples were collected from the tail vein at 5, 10, 15, 30 min, 1, 2, 4, 8 hr after administration, an anticoagulation treatment with heparin sodium (Shimizu Pharmaceutical Co., Ltd.) was performed, and plasma was collected after centrifugation and subjected to the measurement of drug concentration. In the case of oral administration, blood samples were collected from the tail vein at 15, 30 min, 1, 2, 4, 8 hr after administration, an anticoagulation treatment with heparin sodium was performed, and plasma was collected after centrifugation and subjected to the measurement of drug concentration.
All drug concentrations were measured by LC-MS/MS analysis. For a pharmacokinetics test, the plasma (50 μL) was placed in a tube, acetonitrile (150 μL) containing internal standard solution was added and they were mixed on a vortex mixer. Thereafter, the mixture was centrifuged (5000 rpm, 5 min, 4° C.). The supernatant (60 μL) after centrifugation was added to 10 mmol/L ammonium formate (160 μL) added earlier and mixed therewith. This sample was injected to LC/MS/MS. […]

Male SD rats = test: Rat defecation experiment; type: in vivo; conditions: mean ± standard error
Experimental: Rat Defecation Experiment
Male SD rats (5-6 weeks old) were used after an acclimation period for about 1 week. A test drug (1 mg/kg or 3 mg/kg) was suspended in 0.5% methylcellulose solution and orally administered at a volume of 5 mL/kg, and the number of feces 2 hr later was counted. Only 0.5% methylcellulose was administered to a solvent administration group.

Row | SMILES | Tmax [1] | clearance [1] | MRT [1] | number of feces 2 hr later (Male SD rats; 1 mg/kg oral) | number of feces 2 hr later (Male SD rats; 3 mg/kg oral)
1 | COCCNC(=O)c1ccc(Cc2cc(C(=O)N[C@H]3CCOC[C@@H]3O)nc3ccoc23)cc1F [Example 109, 1,5-anhydro-2,3-dideoxy-3-(((7-(3-fluoro-4-((2-methoxyethyl)carbamoyl)benzyl)furo[3,2-b]pyridin-5-yl)carbonyl)amino)-L-threo-pentitol] | 1 h | 6.73 mL/min/kg | 1.5 h |  | 
2 | O=C(N[C@H]1CCOC[C@@H]1O)c1cc(Cc2ccc(C(=O)NC[C@@H]3CCCO3)c(F)c2)c2occc2n1 [Example 102, 1,5-anhydro-2,3-dideoxy-3-(((7-(3-fluoro-4-(((2S)-tetrahydrofuran-2-ylmethyl)carbamoyl)benzyl)furo[3,2-b]pyridin-5-yl)carbonyl)amino)-L-threo-pentitol] | 1 h | 11.7 mL/min/kg | 0.9 h | 8.9 ± 1.3 | 12.4 ± 0.9
3 | Cn1cc(-c2ccc(C(F)c3cc(C(=O)N[C@H]4CCOC[C@@H]4O)nc4ccoc34)cc2)nn1 (single isomer, unassigned) [Example 55, 1,5-anhydro-2,3-dideoxy-3-(((7-(fluoro(4-(1-methyl-1H-1,2,3-triazol-4-yl)phenyl)methyl)furo[3,2-b]pyridin-5-yl)carbonyl)amino)-L-threo-pentitol] | 1.7 h | 30.2 mL/min/kg | 0.6 h |  | 
4 | COCCNC(=O)c1ccc(Cc2cc(C(=O)N[C@H]3CCOC[C@@H]3O)nc3c2OCC3)cc1F [Example 76, 1,5-anhydro-2,3-dideoxy-3-(((7-(3-fluoro-4-((2-methoxyethyl)carbamoyl)benzyl)-2,3-dihydrofuro[3,2-b]pyridin-5-yl)carbonyl)amino)-L-threo-pentitol] | 0.8 h | 5.58 mL/min/kg | 1.2 h | 8.3 ± 0.8 | 10.3 ± 0.9
5 | Cn1cc(-c2ccc(Cc3cc(C(=O)N[C@H]4CCOC[C@@H]4O)nc4ccoc34)cc2)nn1 [Example 20, 1,5-anhydro-2,3-dideoxy-3-(((7-(4-(1-methyl-1H-1,2,3-triazol-4-yl)benzyl)furo[3,2-b]pyridin-5-yl)carbonyl)amino)-L-threo-pentitol] | 2 h | 4.1 mL/min/kg | 1.8 h | 10.6 ± 1.3 | 12.1 ± 1.1
6 | O=C(N[C@H]1CCOC[C@@H]1O)c1cc(Cc2ccc(C(=O)NC[C@@H]3CCCO3)c(F)c2)c2c(n1)CCO2 [Example 77, 1,5-anhydro-2,3-dideoxy-3-(((7-(3-fluoro-4-(((2S)-tetrahydrofuran-2-ylmethyl)carbamoyl)benzyl)-2,3-dihydrofuro[3,2-b]pyridin-5-yl)carbonyl)amino)-L-threo-pentitol] | 1 h | 8.13 mL/min/kg | 0.8 h | 13.9 ± 1.5 | 12.3 ± 1.6
7 | Cn1cc(-c2ccc(Cc3cc(C(=O)N[C@H]4CCOC[C@@H]4O)nc4c3OCC4)cc2)nn1 [Example 31, 1,5-anhydro-2,3-dideoxy-3-(((7-(4-(1-methyl-1H-1,2,3-triazol-4-yl)benzyl)-2,3-dihydrofuro[3,2-b]pyridin-5-yl)carbonyl)amino)-L-threo-pentitol] | 1 h | 3.33 mL/min/kg | 1.5 h | 10.0 ± 1.4 | 
8 | Cn1cc(-c2ccc(Cc3cc(C(=O)N[C@H]4CCOC[C@@H]4O)nc4c3OCC4)cc2)cn1 [Example 44, 1,5-anhydro-2,3-dideoxy-3-(((7-(4-(1-methyl-1H-pyrazol-4-yl)benzyl)-2,3-dihydrofuro[3,2-b]pyridin-5-yl)carbonyl)amino)-L-threo-pentitol] | 1.3 h | 4.77 mL/min/kg | 1.3 h |  | 
9 | Cn1cc(-c2ccc(Cc3cc(C(=O)N[C@H]4CCOC[C@@H]4O)nc4ccoc34)cn2)cn1 [Example 36, 1,5-anhydro-2,3-dideoxy-3-(((7-((6-(1-methyl-1H-pyrazol-4-yl)pyridin-3-yl)methyl)furo[3,2-b]pyridin-5-yl)carbonyl)amino)-L-threo-pentitol] | 1.3 h | 5.45 mL/min/kg | 1.9 h |  | 
10 | Cn1cnc(-c2ccc(Cc3cc(C(=O)N[C@H]4CCOC[C@@H]4O)nc4c3OCC4)cc2)c1 [Example 74, 1,5-anhydro-2,3-dideoxy-3-(((7-(4-(1-methyl-1H-imidazol-4-yl)benzyl)-2,3-dihydrofuro[3,2-b]pyridin-5-yl)carbonyl)amino)-L-threo-pentitol] | 0.8 h | 14 mL/min/kg | 0.9 h |  | 
11 | O=C(N[C@H]1CCOC[C@@H]1O)c1cc(Cc2ccc(-n3cccn3)cc2)c2c(n1)CCO2 [Example 22, 1,5-anhydro-2,3-dideoxy-3-(((7-(4-(1H-pyrazol-1-yl)benzyl)-2,3-dihydrofuro[3,2-b]pyridin-5-yl)carbonyl)amino)-L-threo-pentitol] | 2 h | 4.67 mL/min/kg | 1.9 h |  | 
